Experimental data from publication PMC8921294, “Inhibition of mitochondrial LonP1 protease by allosteric blockade of ATP binding and hydrolysis via CDDO and its derivatives” (The Journal of Biological Chemistry, 2022).

System: T1, 26S proteasome ATPase
T1 construct: purified from human embryonic kidney cells (HEK293); purchased Boston Biochem Inc.-R&D Systems E-365; host or cells: HEK293
Assay: Endpoint ATPase assay, purified 26S proteasome
Format: biochemical, human
Settings: 26S proteasome 3 nM, Fig. 4A
Description: CDDO and CDDO-Methyl (CDDO-Me) were purchased from Cayman Chemical, CDDO-Imidazole (CDDO-Im) was purchased from Tocris. CDDO-anhydride ([20]) and TP-82 ([71]) were synthesized as reported. Other inhibitors in this study were purchased commercially: MG262 (Boston Biochem), bortezomib (LC Labs) and enoxolone (Cayman Chemical). Antibodies recognizing the following antigens were employed in this study: LonP1 (Proteintech, cat. 15440-1-AP), p53 (Calbiochem, cat. 0P43, lot # D00086815), cleaved PARP (Asp214) (BD Biosciences, cat. 552596), procaspase-3 monoclonal antibody (Transduction Laboratories, cat. C31720), actin (Santa Cruz, cat. sc-1615, lot # F0408), heme oxygenase 1 (Santa Cruz, cat. sc-136960, lot # B1516), TFAM kindly provided by Daniel Bogenhagen (Stony Brook University). Human 26S and 20S proteasome purified from human embryonic kidney cells (HEK293) were purchased commercially (Boston Biochem Inc.-R&D Systems, cat. E-365, lot # 35730210 and cat. E-360, lot # 16918510, respectively).
ADP-Glo (Promega) assays were performed according to the manufacturer's protocols. […] Assay reagents were used to quench further ATPase activity and generate luminescence signals proportional to the concentration of ADP formed. Background (no enzyme control) luminescence values were subtracted, and resultant values were reported as a percentage of the no drug control (100%). […]

Inhibition of ATP hydrolysis by the 26S proteasome: failed to inhibit
Compound: CC1(C)CC[C@]2(C(=O)O)CC[C@]3(C)[C@H](C(=O)C=C4[C@@]5(C)C=C(C#N)C(=O)C(C)(C)[C@@H]5CC[C@]43C)[C@@H]2C1 [CDDO, 2-cyano-3,12-dioxooleana-1,9(11)-dien-28-oic acid]
